Measurements as given in US20170312296A1, “AGENTS FOR KILLING HIV-1-INFECTED CELLS AND APPLICATION THEREOF” (KAGOSHIMA UNIVERSITY, priority 2015, published 2017).

What was measured:
[1] = system: HIV-1-infected CD4-positive T lymphocytes (CD4T); experiment: Cell viability (dye method) in CD4T-derived HIV-1 chronically infected cell model; type: cell-based, human; conditions: for effect on the cell death-inducing effect specific for HIV-1-infected cells due to entinostat: Example 6, CD4T, combination with entinostat; for cell death-inducing effect specific for HIV-1-infected cells in CD4T: Example 5: treated 4 days from day 3 or from day 7 after infection
Protocol: In this Example, the action of various HDAC inhibitors on HIV-1-infected CD4T was analyzed using CD4T purified from human peripheral blood mononuclear cells.
(§1) In this Example, it was examined whether combined use with an HIV-1 reverse transcriptase inhibitor provided the same effect, by conducting a combination experiment with entinostat according to the experimental procedure shown in FIG. 13 using tenofovir (TFV) as one of the clinically most used HIV-1 reverse transcriptase inhibitors.
as §1, with “Then,” for “In this Example,”, “integrase” for “reverse transcriptase”, “effect” for “effect,”, “15” for “13”, “dolutegravir (DTG)” for “tenofovir (TFV)”

HIV-1 strain IIIB [2] = experiment: Amount of HIV-1 produced (HIV-1 p24 Antigen ELISA) in HIV-1-infected CD4T; type: cell-based
Text: as §1
as §1, with “Then,” for “In this Example,”, “integrase” for “reverse transcriptase”, “effect” for “effect,”, “15” for “13”, “dolutegravir (DTG)” for “tenofovir (TFV)”

[3] = system: HIV-1 latently infected cells (reservoir cells); conditions: literature report (Johnstone 2002); cited from earlier work
HIV-1 strain IIIB [4] = experiment: Amount of HIV-1 produced (HIV-1 p24 Antigen ELISA) in HIV-1-infected human peripheral blood mononuclear cells; type: cell-based
[5] = system: HIV-1-infected human peripheral blood mononuclear cells; experiment: Cell viability (dye method) in HIV-1 chronically infected cell model derived from human peripheral blood mononuclear cells; conditions: for effect on the cell death-inducing effect specific for HIV-1-infected cells due to entinostat: Example 2: combination with entinostat 0.5 μM after protease inhibitor pretreatment; for cell death-inducing effect specific for HIV-1-infected cells: Example 4: treatment after 11 days culture
Protocol: Healthy donor-derived peripheral blood mononuclear cells were infected with HIV-1 strain IIIB in vitro to prepare an HIV-1 chronically infected cell model derived from human peripheral blood mononuclear cells, and a combination effect of an HIV-1 protease inhibitor (NFV or SQV) and an HDAC inhibitor (entinostat or vorinostat) was examined.
After HIV-1 infection or pseudo-infection (=mock-infection), the cells were cultured for 7 days and treated with various concentrations of each HIV-1 protease inhibitor for 3 days. For 3 days thereafter, treatment was carried out using combinations of each HIV-1 protease inhibitor having the same concentration and each HDAC inhibitor. The cell viability in each sample was measured by a dye method, and the amount of HIV-1 produced, by an ELISA method (HIV-1 p24 Antigen ELISA). […]

Cleaved caspase-3 = experiment: Western blot of cleaved caspase-3 in CD4T; type: cell-based, human; conditions: entinostat 0.5 μM
Protocol: (§2) The extracted protein was analyzed by a Western blot method.
(§3) The expression of each of Cleaved caspase-3 and Cleaved PARP was corrected with the expression of β-tublin as an internal control to make a graph.

Cleaved PARP = experiment: Western blot of cleaved PARP in CD4T; type: cell-based, human
Protocol: as §2, §3

[6] = system: mock-infected human peripheral blood mononuclear cells; experiment: Cell viability (dye method) of mock-infected human peripheral blood mononuclear cells; type: cell-based; conditions: Example 4
Protocol: After HIV-1 infection or pseudo-infection (=mock-infection), the cells were cultured for 7 days and treated with various concentrations of each HIV-1 protease inhibitor for 3 days. For 3 days thereafter, treatment was carried out using combinations of each HIV-1 protease inhibitor having the same concentration and each HDAC inhibitor. The cell viability in each sample was measured by a dye method, and the amount of HIV-1 produced, by an ELISA method (HIV-1 p24 Antigen ELISA).
After HIV-1 infection or pseudo-infection (=mock-infection), culture was performed for 11 days, and for 3 days from day 12, the combined administration of each HIV-1 protease inhibitor having various concentrations and the HDAC inhibitor was carried out. The cell viability in each sample was measured by a dye method, and the amount of HIV-1 produced, by an ELISA method (HIV-1 p24 Antigen ELISA).
After HIV-1 infection or pseudo-infection (=mock-infection), the cells were cultured for 11 days and treated with various concentrations of each HDAC inhibitor. The cell viability in each sample was measured by a dye method, and the amount of HIV-1 produced, by an ELISA method (HIV-1 p24 Antigen ELISA).

[7] = system: mock-infected CD4-positive T lymphocytes (CD4T); experiment: Cell viability (dye method) of mock-infected CD4T; type: cell-based, human; conditions: Example 5, CD4T
[8] = Example 3: simultaneous administration with entinostat, no pretreatment, 3 days from day 12
[9] = Example 2: protease inhibitor pretreatment 3 days, then combination 3 days, in the presence of entinostat of 0.5 μM

C[C@H](Cn1cnc2c(N)ncnc21)OCP(=O)(O)O [tenofovir]
effect on the cell death-inducing effect specific for HIV-1-infected cells due to entinostat [1]: did not affect | concentration at which HIV-1 production was still not suppressed (HIV-1 strain IIIB [2]; Example 6, CD4T, irrespective of the presence or absence of entinostat): > 1 µM

O=C(CCCCCCC(=O)Nc1ccccc1)NO [vorinostat]
cell death-inducing effect specific for HIV-1-infected cells in CD4T [1]: no cell death-inducing effect specific for HIV-1-infected cells | activation of HIV-1 latently infected cells to induce HIV-1 production [3]: activate HIV-1 latently infected cells

CC(C)CN(C[C@@H](O)[C@H](Cc1ccccc1)NC(=O)O[C@H]1CO[C@H]2OCC[C@H]21)S(=O)(=O)c1ccc(N)cc1 [darunavir]
concentration that strongly suppressed the increase in HIV-1 production due to entinostat (HIV-1 strain IIIB [4]; Example 3: simultaneous administration with entinostat): ≥ 100 nM | HIV-1 production (HIV-1 strain IIIB [4]; [8]): suppressing HIV-1 production | activation of HIV-1 production by entinostat (HIV-1 strain IIIB [2]; Example 6: 100 nM, administered simultaneously with entinostat, CD4T): strongly suppressing

C[C@@H]1CCO[C@H]2Cn3cc(C(=O)NCc4ccc(F)cc4F)c(=O)c(O)c3C(=O)N12 [dolutegravir]
effect on the cell death-inducing effect specific for HIV-1-infected cells due to entinostat [1]: did not affect | anti-HIV-1 effect (HIV-1 strain IIIB [2]; Example 6, CD4T, in the absence of entinostat): hardly had an anti-HIV-1 effect

CC(C)(C)NC(=O)[C@@H]1C[C@@H]2CCCC[C@@H]2CN1C[C@@H](O)[C@H](Cc1ccccc1)NC(=O)[C@H](CC(N)=O)NC(=O)c1ccc2ccccc2n1 [SQV, saquinavir]
effect on the cell death-inducing effect specific for HIV-1-infected cells due to entinostat [5]: did not affect | HIV-1 production (HIV-1 strain IIIB [4]; [9]): concentration-dependently suppressed HIV-1 production

Nc1ccccc1NC(=O)c1ccc(CNC(=O)OCc2cccnc2)cc1 [entinostat]
cell death-inducing effect specific for HIV-1-infected cells [5]: cell death-inducing effect specific for HIV-1-infected cells | viability at 0.5 µM ([5]; Homo sapiens, PBMC, read-out: cell viability of HIV-1-infected cells relative to cell viability of pseudo-infected (non-infected) cells): ~50% | effect of the HDAC inhibitor on HIV-1 production in infected cells (HIV-1 strain IIIB [4]; entinostat alone): activates HIV-1 production | cell death-inducing effect specific for HIV-1-infected cells in CD4T [1]: cell death-inducing effect specific for HIV-1-infected cells | increase of cleaved caspase-3 in HIV-1-infected CD4T versus pseudo-infected CD4T (Cleaved caspase-3; 24 hours): more marked | activated form of caspase-3 (cleaved caspase-3) expression (Cleaved caspase-3; 24 hours, pseudo-infected CD4T (Mock) and HIV-1-infected CD4T (HIV)): increase | increase in activated form of caspase-3 (Cleaved caspase-3; 48 hours, pseudo-infected CD4T and HIV-1-infected CD4T): not observed | cleaved PARP expression (Cleaved PARP; entinostat 0.5 μM, 24 hours, pseudo-infected CD4T and HIV-1-infected CD4T): increase in the cleaved PARP was observed | expression of PARP (cleaved) (Cleaved PARP; entinostat, 48 hours, HIV-1-infected CD4T): markedly increased | activation of HIV-1 latently infected cells to induce HIV-1 production [3]: activate HIV-1 latently infected cells

Cc1c(O)cccc1C(=O)N[C@@H](CSc1ccccc1)[C@H](O)CN1C[C@H]2CCCC[C@H]2C[C@H]1C(=O)NC(C)(C)C [nelfinavir]
effect on the cell death-inducing effect specific for HIV-1-infected cells due to entinostat [5]: did not affect | HIV-1 production (HIV-1 strain IIIB [4]; [9]): concentration-dependently suppressed HIV-1 production | HIV-1 production (HIV-1 strain IIIB [4]; [8]): suppressing HIV-1 production

chidamide
cell death-inducing effect specific for HIV-1-infected cells compared with entinostat ([5]; Example 4): weaker cell death-inducing effect | cell death-inducing effect specific for HIV-1-infected cells [5]: cell death-inducing effect specific for HIV-1-infected cells | toxicity to mock-infected cells compared with entinostat [6]: less toxic | cell death-inducing effect against infected cells compared to entinostat ([1]; Example 5, CD4T): weaker cell death-inducing effect | cell death-inducing effect specific for HIV-1-infected cells in CD4T [1]: cell death-inducing effect specific for HIV-1-infected cells | toxicity to mock-infected cells compared to entinostat [7]: less toxic
